# Test results: patent US20110178118A1, “PALONOSETRON FOR THE TREATMENT OF CHEMOTHERAPY INDUCED EMESES” (priority 2002, published 2011)
# Like-named read-outs stand apart in the source and are kept apart here. Marks after values point to notes of the source that are not given here.
# What was measured:
# cisplatin-induced emesis [1] = assay: Intravenous palonosetron vs ondansetron in cisplatin-treated dogs; format: in vivo; conditions: 1.0 mg/kg intravenous; five-hour period following cisplatin 3.0 mg/kg
# Description: (§1) The antiemetic effects of intravenously and orally administered palonosetron were assessed in male and female dogs (sexes combined). Antineoplastic agents employed in these experiments included cisplatin (3 mg/kg)), dacarbazine (30 mg/kg), mechlorethamine (0.4 mg/kg) and actinomycin D (0.15 mg/kg). […] Mean numbers of episodes were computed and the statistical significance of differences between treatment groups were determined with Dunnett's t test. Solutions of palonosetron and comparator drugs (ondansetron and granisetron) were prepared in distilled water. Vehicle control groups received distilled water. The therapeutic effects of intravenously and orally administered palonosetron were compared to those of ondansetron and vehicle in cisplatin-treated dogs.
# cisplatin-induced emesis [2] = assay: Reversal of cisplatin-induced emesis, intravenous antiemetic one hour after cisplatin; format: in vivo, dogs; conditions: for Emetic Episodes (mean ± SD): observed five hours
# Description: as §1, with “In a different study, palonosetron and ondansetron were assessed for their relative abilities to reverse cisplatin-induced emesis. In these experiments dogs received intravenous injections” for “The therapeutic effects”, “palonosetron, ondansetron, or vehicle one hour after the intravenous administration” for “intravenously and orally administered palonosetron were compared to those”, “3.0 mg/kg cisplatin. Each animal was observed continuously for five hours following cisplatin administration for the number of emetic episodes.” for “ondansetron and vehicle in cisplatin-treated dogs.”
# cisplatin-induced emesis [3] = assay: Anti-emetic effect, oral antiemetic one hour before cisplatin; format: in vivo, dogs; conditions: for Emetic Episodes (mean ± SD): observed five hours
# Description: The antiemetic effects of intravenously and orally administered palonosetron were assessed in male and female dogs (sexes combined). Antineoplastic agents employed in these experiments included cisplatin (3 mg/kg)), dacarbazine (30 mg/kg), mechlorethamine (0.4 mg/kg) and actinomycin D (0.15 mg/kg). […] Mean numbers of episodes were computed and the statistical significance of differences between treatment groups were determined with Dunnett's t test. Solutions of palonosetron and comparator drugs (ondansetron and granisetron) were prepared in distilled water. Vehicle control groups received distilled water. The observation of potency differential was further seen during an experiment in which oral dose-response relationships of palonosetron and ondansetron were compared in cisplatin-treated dogs. Palonosetron, ondansetron or vehicle control were administered by the oral route one hour prior to the administration of cisplatin. Each animal was observed continuously for five hours following cisplatin administration for the number of emetic episodes.
# cisplatin-induced emesis [4] = assay: Duration of action in cisplatin-treated dogs; format: in vivo
# Description: Mean numbers of episodes were computed and the statistical significance of differences between treatment groups were determined with Dunnett's t test. Solutions of palonosetron and comparator drugs (ondansetron and granisetron) were prepared in distilled water. Vehicle control groups received distilled water.
# [5] = system: Dacarbazine-Induced Emesis; assay: Antagonism of dacarbazine-induced emesis; format: in vivo, dogs; conditions: 2 hours prior to dacarbazine 30.0 mg/kg IV, observed 5 hours
# [6] = system: Actinomycin D-Induced Emesis; assay: Antagonism of actinomycin D-induced emesis; format: in vivo, dogs; conditions: 2 hours prior to actinomycin D 0.15 mg/kg IV, observed 5 hours
# [7] = system: Mechlorethamine-Induced Emesis; format: in vivo, dogs; conditions: 2 hours prior to mechlorethamine 0.4 mg/kg IV, observed 5 hours
# [8] = intravenous antiemetic 0.01 mg/kg
# [9] = intravenous antiemetic 0.03 mg/kg
# [10] = intravenous antiemetic 0.1 mg/kg
# [11] = intravenous antiemetic 0.3 mg/kg
smiles,measurement,setting,value
"Cc1nccn1CC1CCc2c(c3ccccc3n2C)C1=O (centres unmarked) [Ondansetron, reference compound]",mean number of emetic episodes,cisplatin-induced emesis [1],6.83
same,Emetic Episodes (mean ± SD),cisplatin-induced emesis [2]; intravenous dose 1.0 μg/kg one hour after cisplatin 3.0 mg/kg IV,16.16 ± 5.14 ^
same,Emetic Episodes (mean ± SD),cisplatin-induced emesis [2]; intravenous dose 3.0 μg/kg one hour after cisplatin 3.0 mg/kg IV,13.33 ± 4.17 ^
same,Emetic Episodes (mean ± SD),cisplatin-induced emesis [2]; intravenous dose 10.0 μg/kg one hour after cisplatin 3.0 mg/kg IV,13.33 ± 3.01 ^
same,Emetic Episodes (mean ± SD),cisplatin-induced emesis [2]; intravenous dose 30.0 μg/kg one hour after cisplatin 3.0 mg/kg IV,8.33 ± 3.20^
same,Emetic Episodes (mean ± SD),cisplatin-induced emesis [2]; intravenous dose 100.0 μg/kg one hour after cisplatin 3.0 mg/kg IV,4.83 ± 2.40^b
same,Emetic Episodes (mean ± SD),cisplatin-induced emesis [2]; intravenous dose 300.0 μg/kg one hour after cisplatin 3.0 mg/kg IV,1.00 ± 2.00^b
same,Emetic Episodes (mean ± SD),cisplatin-induced emesis [2]; intravenous dose 1000.0 μg/kg one hour after cisplatin 3.0 mg/kg IV,1.16 ± 0.40^b
same,statistically minimally effective dose level,"cisplatin-induced emesis [2]; intravenous, one hour after cisplatin",0.1 mg/kg
same,Emetic Episodes (mean ± SD),cisplatin-induced emesis [3]; oral dose 1.0 μg/kg one hour before cisplatin,15.50 ± 3.93
same,Emetic Episodes (mean ± SD),cisplatin-induced emesis [3]; oral dose 3.0 μg/kg one hour before cisplatin,14.83 ± 6.49
same,Emetic Episodes (mean ± SD),cisplatin-induced emesis [3]; oral dose 10.0 μg/kg one hour before cisplatin,12.66 ± 3.01
same,Emetic Episodes (mean ± SD),cisplatin-induced emesis [3]; oral dose 30.0 μg/kg one hour before cisplatin,18.33 ± 8.43
same,Emetic Episodes (mean ± SD),cisplatin-induced emesis [3]; oral dose 100.0 μg/kg one hour before cisplatin,10.50 ± 3.14
same,Emetic Episodes (mean ± SD),cisplatin-induced emesis [3]; oral dose 300.0 μg/kg one hour before cisplatin,3.16 ± 1.32^a
same,Emetic Episodes (mean ± SD),cisplatin-induced emesis [3]; oral dose 1000.0 μg/kg one hour before cisplatin,2.00 ± 2.09^a
same,minimally effective dose (significant reduction in episodes),"cisplatin-induced emesis [3]; oral, one hour before cisplatin",0.3 mg/kg
same,pretreatment time before cisplatin with reduced emetic episodes,cisplatin-induced emesis [4]; 0.15 mg/kg IV,only after a one-hour pretreatment period
same,Emetic Episodes (mean ± SD),"cisplatin-induced emesis [4]; 0.15 mg/kg IV, 1 hr pre-cisplatin 3.0 mg/kg IV",7.83 ± 4.12^b
same,Emetic Episodes (mean ± SD),"cisplatin-induced emesis [4]; 0.15 mg/kg IV, 2 hr pre-cisplatin 3.0 mg/kg IV",10.67 ± 5.28
same,Emetic Episodes (mean ± SD),"cisplatin-induced emesis [4]; 0.15 mg/kg IV, 4 hr pre-cisplatin 3.0 mg/kg IV",12.67 ± 2.07
same,Emetic Episodes (mean ± SD),"cisplatin-induced emesis [4]; 0.15 mg/kg IV, 6 hr pre-cisplatin 3.0 mg/kg IV",14.17 ± 6.79
same,Emetic Episodes (mean ± SD),"cisplatin-induced emesis [4]; 0.15 mg/kg IV, 8 hr pre-cisplatin 3.0 mg/kg IV",15.50 ± 7.29
same,Emetic Episodes (mean ± SD),"cisplatin-induced emesis [4]; 0.15 mg/kg IV, 10 hr pre-cisplatin 3.0 mg/kg IV",13.83 ± 4.58
same,Emetic Episodes (mean ± SD),"cisplatin-induced emesis [4]; 0.15 mg/kg IV, 12 hr pre-cisplatin 3.0 mg/kg IV",22.00 ± 8.32
same,"protective effects, pretreatment time prior to cisplatin","cisplatin-induced emesis [4]; earlier experiment, 0.3 mg/kg, IV",as long as seven hours
same,Emetic Episodes (mean ± SD),[5]; [8],11.50 ± 5.51 ^
same,Emetic Episodes (mean ± SD),[5]; [9],8.17 ± 2.79^
same,Emetic Episodes (mean ± SD),[5]; [10],4.83 ± 2.48^d
same,Emetic Episodes (mean ± SD),[5]; [11],1.33 ± 0.82^d
same,Emetic Episodes (mean ± SD),[5]; oral antiemetic 0.03 mg/kg,10.83 ± 2.72 ^
same,Emetic Episodes (mean ± SD),[5]; oral antiemetic 0.1 mg/kg,6.17 ± 5.35^d
same,Emetic Episodes (mean ± SD),[5]; oral antiemetic 0.3 mg/kg,3.00 ± 3.03^d
same,Emetic Episodes (mean ± SD),[5]; oral antiemetic 1 mg/kg,0.17 ± 0.41^d
same,Emetic Episodes (mean ± SD),[6]; [8],7.67 ± 2.25^d
same,Emetic Episodes (mean ± SD),[6]; [9],14.67 ± 4.68 ^
same,Emetic Episodes (mean ± SD),[6]; [10],12.67 ± 3.45 ^
same,Emetic Episodes (mean ± SD),[6]; [11],5.83 ± 4.45^d
same,Emetic Episodes (mean ± SD),[6]; oral antiemetic 0.03 mg/kg,9.83 ± 7.52^
same,Emetic Episodes (mean ± SD),[6]; oral antiemetic 0.1 mg/kg,10.33 ± 4.84 ^
same,Emetic Episodes (mean ± SD),"[6]; oral antiemetic 0.3 mg/kg, one dog dropped",4.20 ± 1.92^d
same,Emetic Episodes (mean ± SD),[6]; oral antiemetic 1 mg/kg,1.50 ± 1.38^d
same,Emetic Episodes (mean ± SD),[7]; [8],5.83 ± 4.31
same,Emetic Episodes (mean ± SD),[7]; [9],3.50 ± 2.07^c
same,Emetic Episodes (mean ± SD),[7]; [10],5.33 ± 4.68
same,Emetic Episodes (mean ± SD),[7]; [11],4.67 ± 1.63^c
same,Emetic Episodes (mean ± SD),[7]; oral antiemetic 0.03 mg/kg,5.67 ± 2.50
same,Emetic Episodes (mean ± SD),[7]; oral antiemetic 0.1 mg/kg,8.50 ± 3.15
same,Emetic Episodes (mean ± SD),[7]; oral antiemetic 0.3 mg/kg,2.83 ± 3.71^d
same,Emetic Episodes (mean ± SD),[7]; oral antiemetic 1 mg/kg,0.00 ± 0.00^d
